{"source": "paper PMC7347136", "about": "(PLoS ONE, 2020)", "experiment_in_all_cases": "Carna kinase panel screen", "type_in_all_cases": "biochemical", "conditions_in_all_cases": "read-out: % Inhibition ± SD", "key": {"WEE1": {"molecular_target": "T1, WEE1 (Homo sapiens, UniProt P30291)", "T1 construct": "purchased Carna Biosciences", "how_it_was_run": "(§1)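 Inhibition was measured across ten compound concentrations at Km-approximating ATP. A four-parameter logistic curve fitted to the percentage-inhibition data yields the IC50.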"}, "ALK": {"molecular_target": "T2, ALK (Homo sapiens, UniProt Q9UM73)", "T2 construct": "purchased Carna Biosciences", "how_it_was_run": "as §1"}, "MAP2K5": {"molecular_target": "T3, MAP2K5 (Homo sapiens, UniProt Q13163)", "T3 construct": "purchased Carna Biosciences", "how_it_was_run": "(§2)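 First, percentage inhibition is computed for each test solution in a 10-point series, ATP held near Km. Then the concentration-inhibition curve is fitted with a four-parameter logistic equation to obtain IC50.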"}, "PHKG1": {"molecular_target": "T4, PHKG1 (Homo sapiens, UniProt Q16816)", "T4 construct": "purchased Carna Biosciences", "how_it_was_run": "as §1"}, "PKCz": {"molecular_target": "T5, PKCz (Homo sapiens, UniProt Q05513)", "T5 construct": "purchased Carna Biosciences", "how_it_was_run": "(§3)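 IC50 determined by fitting percentage inhibition from a 10-point dilution series, run at ATP approximating Km, to a four-parameter logistic curve.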"}, "PASK": {"molecular_target": "T6, PASK (Homo sapiens, UniProt Q96RG2)", "T6 construct": "purchased Carna Biosciences", "how_it_was_run": "as §1"}, "EphA5": {"molecular_target": "T7, EphA5 (Homo sapiens, UniProt P54756)", "T7 construct": "purchased Carna Biosciences", "how_it_was_run": "as §1"}, "AXL": {"molecular_target": "T8, AXL (Homo sapiens, UniProt P30530)", "T8 construct": "purchased Carna Biosciences", "how_it_was_run": "as §1"}, "EphA3": {"molecular_target": "T9, EphA3 (Homo sapiens, UniProt P29320)", "T9 construct": "purchased Carna Biosciences", "T9 sequence (P29320 21-983)": "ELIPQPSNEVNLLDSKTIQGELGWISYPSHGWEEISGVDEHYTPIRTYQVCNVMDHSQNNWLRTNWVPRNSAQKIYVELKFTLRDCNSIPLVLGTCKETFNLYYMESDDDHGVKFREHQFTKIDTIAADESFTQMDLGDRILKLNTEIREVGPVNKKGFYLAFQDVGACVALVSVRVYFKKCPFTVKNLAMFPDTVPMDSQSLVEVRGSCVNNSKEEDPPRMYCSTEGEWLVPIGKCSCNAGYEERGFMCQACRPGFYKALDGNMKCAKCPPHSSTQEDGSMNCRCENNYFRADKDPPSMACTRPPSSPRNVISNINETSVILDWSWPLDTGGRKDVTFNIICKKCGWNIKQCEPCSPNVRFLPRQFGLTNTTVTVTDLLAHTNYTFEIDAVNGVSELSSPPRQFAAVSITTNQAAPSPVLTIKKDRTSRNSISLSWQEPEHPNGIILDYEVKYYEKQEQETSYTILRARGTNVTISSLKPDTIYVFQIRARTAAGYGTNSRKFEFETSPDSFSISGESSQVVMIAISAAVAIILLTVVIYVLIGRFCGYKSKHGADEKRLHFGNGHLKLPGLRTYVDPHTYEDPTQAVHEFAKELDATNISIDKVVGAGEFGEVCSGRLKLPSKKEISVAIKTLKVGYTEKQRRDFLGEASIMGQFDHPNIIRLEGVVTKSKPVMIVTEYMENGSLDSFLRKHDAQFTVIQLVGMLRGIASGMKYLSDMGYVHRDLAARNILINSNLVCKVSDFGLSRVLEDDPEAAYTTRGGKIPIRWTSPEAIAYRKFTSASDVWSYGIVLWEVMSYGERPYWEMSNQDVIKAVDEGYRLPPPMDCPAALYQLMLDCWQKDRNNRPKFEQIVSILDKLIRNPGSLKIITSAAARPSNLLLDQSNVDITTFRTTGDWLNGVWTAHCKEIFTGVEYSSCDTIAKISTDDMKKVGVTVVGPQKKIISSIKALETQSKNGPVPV", "how_it_was_run": "as §1"}, "EphB2": {"molecular_target": "T10, EphB2 (Homo sapiens, UniProt P29323)", "T10 construct": "purchased Carna Biosciences", "T10 sequence (P29323 19-1055)": "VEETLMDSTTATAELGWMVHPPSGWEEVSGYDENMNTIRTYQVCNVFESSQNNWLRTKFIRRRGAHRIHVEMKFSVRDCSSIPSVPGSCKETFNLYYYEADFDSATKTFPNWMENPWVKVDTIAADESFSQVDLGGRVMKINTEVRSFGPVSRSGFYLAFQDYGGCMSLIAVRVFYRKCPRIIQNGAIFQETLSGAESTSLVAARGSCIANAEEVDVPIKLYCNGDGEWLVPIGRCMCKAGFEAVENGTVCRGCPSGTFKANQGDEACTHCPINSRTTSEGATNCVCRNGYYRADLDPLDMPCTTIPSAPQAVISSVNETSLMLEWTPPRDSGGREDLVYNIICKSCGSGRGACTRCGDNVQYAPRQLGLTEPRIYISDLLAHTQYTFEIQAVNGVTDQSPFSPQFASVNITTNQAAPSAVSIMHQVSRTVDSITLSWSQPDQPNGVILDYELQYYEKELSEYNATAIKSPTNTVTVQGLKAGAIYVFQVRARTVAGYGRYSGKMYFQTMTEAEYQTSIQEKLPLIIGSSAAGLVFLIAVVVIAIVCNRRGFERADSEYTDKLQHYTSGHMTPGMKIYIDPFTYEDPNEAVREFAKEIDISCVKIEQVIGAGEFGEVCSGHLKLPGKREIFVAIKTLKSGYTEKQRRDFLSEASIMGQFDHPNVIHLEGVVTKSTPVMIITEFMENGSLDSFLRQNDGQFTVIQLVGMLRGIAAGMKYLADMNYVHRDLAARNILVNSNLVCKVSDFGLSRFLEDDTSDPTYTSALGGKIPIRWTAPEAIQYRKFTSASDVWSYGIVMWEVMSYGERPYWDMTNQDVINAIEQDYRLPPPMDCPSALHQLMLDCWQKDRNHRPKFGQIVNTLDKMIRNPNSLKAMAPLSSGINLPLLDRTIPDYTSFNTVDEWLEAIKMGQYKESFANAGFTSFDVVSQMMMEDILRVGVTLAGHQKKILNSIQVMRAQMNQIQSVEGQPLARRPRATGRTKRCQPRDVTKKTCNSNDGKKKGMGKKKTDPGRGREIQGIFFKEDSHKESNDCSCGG", "how_it_was_run": "as §1"}, "BRSK2": {"molecular_target": "T11, BRSK2 (Homo sapiens, UniProt Q8IWQ3)", "T11 construct": "purchased Carna Biosciences", "how_it_was_run": "as §1"}, "HCK": {"molecular_target": "T12, HCK (Homo sapiens, UniProt P08631)", "T12 construct": "purchased Carna Biosciences", "how_it_was_run": "as §1"}, "FYN": {"molecular_target": "T13, FYN (Homo sapiens, UniProt P06241)", "T13 construct": "purchased Carna Biosciences", "how_it_was_run": "as §1"}, "FLT1": {"molecular_target": "T14, FLT1 (Homo sapiens, UniProt P17948)", "T14 construct": "purchased Carna Biosciences", "how_it_was_run": "as §1"}, "NDR1": {"molecular_target": "T15, NDR1 (Homo sapiens, UniProt Q15208)", "T15 construct": "purchased Carna Biosciences", "how_it_was_run": "as §1"}, "MNK1": {"molecular_target": "T16, MNK1 (Homo sapiens, UniProt Q9BUB5)", "T16 construct": "purchased Carna Biosciences", "how_it_was_run": "as §1"}, "p70S6K": {"molecular_target": "T17, p70S6K (Homo sapiens, UniProt P23443)", "T17 construct": "purchased Carna Biosciences", "how_it_was_run": "as §1"}, "MAPKAPK2": {"molecular_target": "T18, MAPKAPK2 (Homo sapiens, UniProt P49137)", "T18 construct": "purchased Carna Biosciences", "how_it_was_run": "as §1"}, "MARK1": {"molecular_target": "T19, MARK1 (Homo sapiens, UniProt Q9P0L2)", "T19 construct": "purchased Carna Biosciences", "how_it_was_run": "as §1"}, "CDK6": {"molecular_target": "T20, CDK6 (Homo sapiens, UniProt Q00534)", "T20 construct": "purchased Carna Biosciences", "how_it_was_run": "as §2"}, "RON": {"molecular_target": "T21, RON (Homo sapiens, UniProt Q04912)", "T21 construct": "purchased Carna Biosciences", "how_it_was_run": "as §1"}, "MNK2": {"molecular_target": "T22, MNK2 (Homo sapiens, UniProt Q9HBH9)", "T22 construct": "purchased Carna Biosciences", "how_it_was_run": "as §1"}, "p70S6Kb": {"molecular_target": "T23, p70S6Kb (Homo sapiens, UniProt Q9UBS0)", "T23 construct": "purchased Carna Biosciences", "how_it_was_run": "as §1"}, "CLK1": {"molecular_target": "T24, CLK1 (Homo sapiens, UniProt P49759)", "T24 construct": "purchased Carna Biosciences", "how_it_was_run": "as §1"}, "HIPK3": {"molecular_target": "T25, HIPK3 (Homo sapiens, UniProt Q9H422)", "T25 construct": "purchased Carna Biosciences", "how_it_was_run": "as §1"}, "PDGFRa": {"molecular_target": "T26, PDGFRa (Homo sapiens, UniProt P16234)", "T26 construct": "purchased Carna Biosciences", "how_it_was_run": "as §1"}, "CHK2": {"molecular_target": "T27, CHK2 (Homo sapiens, UniProt O96017)", "T27 construct": "purchased Carna Biosciences", "how_it_was_run": "as §1"}, "FGFR3[K650E]": {"molecular_target": "T28, FGFR3[K650E] (Homo sapiens, UniProt P22607, K650E)", "T28 construct": "purchased Carna Biosciences", "how_it_was_run": "as §3"}, "CaMK4": {"molecular_target": "T29, CaMK4 (Homo sapiens, UniProt Q16566)", "T29 construct": "purchased Carna Biosciences", "how_it_was_run": "as §1"}, "PBK": {"molecular_target": "T30, PBK (Homo sapiens, UniProt Q96KB5)", "T30 construct": "purchased Carna Biosciences", "how_it_was_run": "as §1"}, "FGFR4": {"molecular_target": "T31, FGFR4 (Homo sapiens, UniProt P22455)", "T31 construct": "purchased Carna Biosciences", "how_it_was_run": "as §1"}, "PGK": {"molecular_target": "T32, PGK (Homo sapiens, UniProt Q13976)", "T32 construct": "purchased Carna Biosciences", "how_it_was_run": "as §3"}, "IKKa": {"molecular_target": "T33, IKKa (Homo sapiens, UniProt O15111)", "T33 construct": "purchased Carna Biosciences", "how_it_was_run": "as §1"}, "TRKA": {"molecular_target": "T34, TRKA (Homo sapiens, UniProt P04629)", "T34 construct": "purchased Carna Biosciences", "T34 sequence (P04629 33-796)": "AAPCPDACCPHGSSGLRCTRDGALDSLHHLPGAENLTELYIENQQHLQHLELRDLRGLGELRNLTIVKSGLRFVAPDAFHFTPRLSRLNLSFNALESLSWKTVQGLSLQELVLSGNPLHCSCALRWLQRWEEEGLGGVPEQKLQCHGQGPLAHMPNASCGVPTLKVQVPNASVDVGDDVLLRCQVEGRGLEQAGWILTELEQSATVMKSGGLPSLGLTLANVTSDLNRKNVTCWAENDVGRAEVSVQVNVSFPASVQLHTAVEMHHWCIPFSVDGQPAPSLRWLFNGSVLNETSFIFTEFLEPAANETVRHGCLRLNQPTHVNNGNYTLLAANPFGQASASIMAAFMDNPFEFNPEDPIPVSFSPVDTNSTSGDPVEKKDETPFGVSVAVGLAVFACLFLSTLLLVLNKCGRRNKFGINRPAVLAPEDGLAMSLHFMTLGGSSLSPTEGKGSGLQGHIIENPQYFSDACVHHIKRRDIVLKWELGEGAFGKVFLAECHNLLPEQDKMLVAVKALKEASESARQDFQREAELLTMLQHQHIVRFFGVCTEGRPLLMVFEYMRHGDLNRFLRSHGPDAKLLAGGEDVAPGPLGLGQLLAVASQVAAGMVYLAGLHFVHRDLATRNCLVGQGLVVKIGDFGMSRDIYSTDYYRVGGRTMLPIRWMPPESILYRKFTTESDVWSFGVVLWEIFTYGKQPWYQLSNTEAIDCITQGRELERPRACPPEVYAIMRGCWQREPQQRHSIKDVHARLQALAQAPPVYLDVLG", "how_it_was_run": "as §1"}, "CSK": {"molecular_target": "T35, CSK (Homo sapiens, UniProt P41240)", "T35 construct": "purchased Carna Biosciences", "how_it_was_run": "as §1"}, "FMS": {"molecular_target": "T36, FMS (Homo sapiens, UniProt P07333)", "T36 construct": "purchased Carna Biosciences", "how_it_was_run": "as §1"}, "CDC2": {"molecular_target": "T37, CDC2 (Homo sapiens, UniProt P06493)", "T37 construct": "purchased Carna Biosciences", "how_it_was_run": "as §1"}, "KIT": {"molecular_target": "T38, KIT (Homo sapiens, UniProt P10721)", "T38 construct": "purchased Carna Biosciences", "how_it_was_run": "as §1"}, "KIT[T670I]": {"molecular_target": "T39, KIT[T670I] (Homo sapiens, UniProt P10721, T670I)", "T39 construct": "purchased Carna Biosciences", "how_it_was_run": "as §1"}, "AurB": {"molecular_target": "T40, AurB (Homo sapiens, UniProt Q96GD4)", "T40 construct": "purchased Carna Biosciences", "T40 sequence (Q96GD4 whole entry)": "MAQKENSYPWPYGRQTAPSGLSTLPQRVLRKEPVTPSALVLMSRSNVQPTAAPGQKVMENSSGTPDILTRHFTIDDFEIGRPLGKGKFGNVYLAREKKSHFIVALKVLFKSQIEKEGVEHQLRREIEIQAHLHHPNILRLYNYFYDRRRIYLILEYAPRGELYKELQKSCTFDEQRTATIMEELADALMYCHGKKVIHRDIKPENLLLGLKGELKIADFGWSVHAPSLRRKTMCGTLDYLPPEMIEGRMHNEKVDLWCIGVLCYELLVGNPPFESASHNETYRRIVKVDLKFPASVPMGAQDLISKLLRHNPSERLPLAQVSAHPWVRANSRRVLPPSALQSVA", "how_it_was_run": "as §1"}, "TYK2": {"molecular_target": "T41, TYK2 (Homo sapiens, UniProt P29597)", "T41 construct": "purchased Carna Biosciences", "how_it_was_run": "as §1"}, "p38d": {"molecular_target": "T42, p38d (Homo sapiens, UniProt O15264)", "T42 construct": "purchased Carna Biosciences", "T42 sequence (O15264 whole entry)": "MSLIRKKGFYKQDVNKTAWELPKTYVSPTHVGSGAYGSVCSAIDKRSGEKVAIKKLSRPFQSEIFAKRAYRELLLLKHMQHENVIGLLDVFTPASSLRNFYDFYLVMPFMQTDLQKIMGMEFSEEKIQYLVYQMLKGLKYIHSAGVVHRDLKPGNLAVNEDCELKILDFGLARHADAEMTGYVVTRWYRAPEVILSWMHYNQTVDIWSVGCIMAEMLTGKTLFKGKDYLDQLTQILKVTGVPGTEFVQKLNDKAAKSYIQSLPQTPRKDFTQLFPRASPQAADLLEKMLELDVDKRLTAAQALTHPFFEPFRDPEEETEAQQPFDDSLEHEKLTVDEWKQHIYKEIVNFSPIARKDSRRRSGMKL", "how_it_was_run": "as §1"}, "MAP3K4": {"molecular_target": "T43, MAP3K4 (Homo sapiens, UniProt Q9Y6R4)", "T43 construct": "purchased Carna Biosciences", "T43 sequence (Q9Y6R4 whole entry)": "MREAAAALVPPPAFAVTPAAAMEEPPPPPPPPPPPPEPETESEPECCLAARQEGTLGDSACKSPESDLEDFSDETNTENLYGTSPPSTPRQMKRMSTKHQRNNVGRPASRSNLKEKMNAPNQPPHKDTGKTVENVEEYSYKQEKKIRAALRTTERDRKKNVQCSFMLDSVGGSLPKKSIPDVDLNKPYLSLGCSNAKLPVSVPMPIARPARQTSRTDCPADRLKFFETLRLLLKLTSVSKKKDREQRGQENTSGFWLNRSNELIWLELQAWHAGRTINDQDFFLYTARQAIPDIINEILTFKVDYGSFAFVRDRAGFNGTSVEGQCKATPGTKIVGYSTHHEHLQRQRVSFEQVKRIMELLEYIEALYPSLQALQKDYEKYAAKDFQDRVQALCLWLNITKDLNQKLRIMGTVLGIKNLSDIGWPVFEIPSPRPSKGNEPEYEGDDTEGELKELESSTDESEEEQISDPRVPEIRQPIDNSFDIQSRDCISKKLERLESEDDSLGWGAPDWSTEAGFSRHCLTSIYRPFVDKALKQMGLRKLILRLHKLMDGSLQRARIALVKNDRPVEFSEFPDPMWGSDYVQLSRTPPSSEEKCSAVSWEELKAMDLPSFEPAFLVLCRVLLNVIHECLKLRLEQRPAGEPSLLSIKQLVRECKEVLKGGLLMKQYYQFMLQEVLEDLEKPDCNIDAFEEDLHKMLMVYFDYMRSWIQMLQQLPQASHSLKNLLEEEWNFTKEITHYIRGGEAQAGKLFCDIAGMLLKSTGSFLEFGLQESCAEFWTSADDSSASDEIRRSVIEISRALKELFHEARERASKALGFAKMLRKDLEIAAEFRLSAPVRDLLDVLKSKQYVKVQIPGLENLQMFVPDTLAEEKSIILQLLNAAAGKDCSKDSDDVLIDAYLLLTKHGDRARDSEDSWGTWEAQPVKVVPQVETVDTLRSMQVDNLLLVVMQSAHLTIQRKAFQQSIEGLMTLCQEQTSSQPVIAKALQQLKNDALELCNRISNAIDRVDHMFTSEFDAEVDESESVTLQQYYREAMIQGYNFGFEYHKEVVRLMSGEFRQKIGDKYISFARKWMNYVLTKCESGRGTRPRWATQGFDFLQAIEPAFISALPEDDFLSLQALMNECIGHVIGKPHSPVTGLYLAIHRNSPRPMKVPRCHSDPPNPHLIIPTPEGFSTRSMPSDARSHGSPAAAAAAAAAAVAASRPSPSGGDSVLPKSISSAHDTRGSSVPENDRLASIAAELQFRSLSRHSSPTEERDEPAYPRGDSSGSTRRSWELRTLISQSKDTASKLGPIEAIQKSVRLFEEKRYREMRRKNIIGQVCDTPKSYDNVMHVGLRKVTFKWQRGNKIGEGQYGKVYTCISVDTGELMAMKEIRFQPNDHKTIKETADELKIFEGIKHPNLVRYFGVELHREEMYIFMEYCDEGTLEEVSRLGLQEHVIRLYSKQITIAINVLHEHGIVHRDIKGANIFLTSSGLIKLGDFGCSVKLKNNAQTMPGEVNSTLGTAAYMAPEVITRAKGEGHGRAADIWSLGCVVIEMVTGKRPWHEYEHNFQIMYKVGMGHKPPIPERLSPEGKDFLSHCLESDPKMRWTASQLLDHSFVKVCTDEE", "how_it_was_run": "as §1"}}}
{"smiles": "CC[C@H](Nc1nc(NCc2cnc(C)cc2C)c2ncn(C(C)C)c2n1)[C@@H](C)O", "note": "[Fadraciclib, 2-pentanol, 3-[[6-[[(4,6-dimethyl-3-pyridinyl)methyl]amino]-9-(1-methylethyl)-9Hpurin-2-yl]amino]-, (2R,3S)]", "values": [{"measurement": "inhibition at 1 µM", "setting": "WEE1", "result": "35.1 ± 0.1", "unit": "%"}, {"measurement": "inhibition at 1 µM", "setting": "ALK", "result": "-9 ± 0.3", "unit": "%"}, {"measurement": "inhibition at 1 µM", "setting": "MAP2K5", "result": "11.9 ± 1.6", "unit": "%"}, {"measurement": "inhibition at 1 µM", "setting": "PHKG1", "result": "-15 ± 0.4", "unit": "%"}, {"measurement": "inhibition at 1 µM", "setting": "PKCz", "result": -0.2, "unit": "%"}, {"measurement": "inhibition at 1 µM", "setting": "PASK", "result": -0.4, "unit": "%"}, {"measurement": "inhibition at 1 µM", "setting": "EphA5", "result": "4.9 ± 0.2", "unit": "%"}, {"measurement": "inhibition at 1 µM", "setting": "AXL", "result": "-11.1 ± 0.1", "unit": "%"}, {"measurement": "inhibition at 1 µM", "setting": "EphA3", "result": "1.6 ± 0.1", "unit": "%"}, {"measurement": "inhibition at 1 µM", "setting": "EphB2", "result": "5 ± 0.2", "unit": "%"}, {"measurement": "inhibition at 1 µM", "setting": "BRSK2", "result": 1.1, "unit": "%"}, {"measurement": "inhibition at 1 µM", "setting": "HCK", "result": "-4.9 ± 0.1", "unit": "%"}, {"measurement": "inhibition at 1 µM", "setting": "FYN", "result": "7.4 ± 0.3", "unit": "%"}, {"measurement": "inhibition at 1 µM", "setting": "FLT1", "result": 1.9, "unit": "%"}, {"measurement": "inhibition at 1 µM", "setting": "NDR1", "result": "2 ± 0.1", "unit": "%"}, {"measurement": "inhibition at 1 µM", "setting": "MNK1", "result": "-13.1 ± 1.6", "unit": "%"}, {"measurement": "inhibition at 1 µM", "setting": "p70S6K", "result": "5.6 ± 0.2", "unit": "%"}, {"measurement": "inhibition at 1 µM", "setting": "MAPKAPK2", "result": "-8.6 ± 0.1", "unit": "%"}, {"measurement": "inhibition at 1 µM", "setting": "MARK1", "result": "-9.7 ± 0.1", "unit": "%"}, {"measurement": "inhibition at 1 µM", "setting": "CDK6", "result": "27 ± 0.9", "unit": "%"}, {"measurement": "inhibition at 1 µM", "setting": "RON", "result": "1.6 ± 0.1", "unit": "%"}, {"measurement": "inhibition at 1 µM", "setting": "MNK2", "result": "-4.3 ± 0.1", "unit": "%"}, {"measurement": "inhibition at 1 µM", "setting": "p70S6Kb", "result": 1.9, "unit": "%"}, {"measurement": "inhibition at 1 µM", "setting": "CLK1", "result": "70.2 ± 6.8", "unit": "%"}, {"measurement": "inhibition at 1 µM", "setting": "HIPK3", "result": -1.1, "unit": "%"}, {"measurement": "inhibition at 1 µM", "setting": "PDGFRa", "result": "5.8 ± 0.2", "unit": "%"}, {"measurement": "inhibition at 1 µM", "setting": "CHK2", "result": "-7.6 ± 0.1", "unit": "%"}, {"measurement": "inhibition at 1 µM", "setting": "FGFR3[K650E]", "result": 5.6, "unit": "%"}, {"measurement": "inhibition at 1 µM", "setting": "CaMK4", "result": "-4.8 ± 0.1", "unit": "%"}, {"measurement": "inhibition at 1 µM", "setting": "PBK", "result": -0.9, "unit": "%"}, {"measurement": "inhibition at 1 µM", "setting": "FGFR4", "result": -14.8, "unit": "%"}, {"measurement": "inhibition at 1 µM", "setting": "PGK", "result": "-21.7 ± 0.2", "unit": "%"}, {"measurement": "inhibition at 1 µM", "setting": "IKKa", "result": 0, "unit": "%"}, {"measurement": "inhibition at 1 µM", "setting": "TRKA", "result": "-10.3 ± 0.3", "unit": "%"}, {"measurement": "inhibition at 1 µM", "setting": "CSK", "result": "-18.7 ± 0.4", "unit": "%"}, {"measurement": "inhibition at 1 µM", "setting": "FMS", "result": "-6.3 ± 0.1", "unit": "%"}, {"measurement": "inhibition at 1 µM", "setting": "CDC2", "result": "57.9 ± 1.3", "unit": "%"}, {"measurement": "inhibition at 1 µM", "setting": "KIT", "result": "-2.4 ± 0.1", "unit": "%"}, {"measurement": "inhibition at 1 µM", "setting": "KIT[T670I]", "result": "-9.2 ± 0.2", "unit": "%"}, {"measurement": "inhibition at 1 µM", "setting": "AurB", "result": "4.2 ± 0.2", "unit": "%"}, {"measurement": "inhibition at 1 µM", "setting": "TYK2", "result": -0.1, "unit": "%"}, {"measurement": "inhibition at 1 µM", "setting": "p38d", "result": "-16 ± 0.6", "unit": "%"}, {"measurement": "inhibition at 1 µM", "setting": "MAP3K4", "result": "7.6 ± 0.1", "unit": "%"}]}
